Measured values taken from ChEMBL document CHEMBL3045413, “Occurrence of zearalenone-4-beta-D-glucopyranoside in wheat” (J Agric Food Chem, 2002).

Experiments:
Type in all cases: ADME, organism-based
Triticum aestivum [1] = experiment: Drug recovery in BavarianTriticum aestivum (wheat) samples at 10 ug/kg after 1 day by LC-MS analysis; conditions: in vivo, 0.01 mg/kg, 24 h
Triticum aestivum [2] = experiment: Drug recovery in Bavarian Triticum aestivum (wheat) samples at 100 ug/kg after 1 day by LC-MS analysis; conditions: in vivo, 0.1 mg/kg, 24 h
Triticum aestivum [3] = experiment: Drug level in Bavarian Triticum aestivum (wheat) at 10 to 100 ug/kg after 1 day by LC-MS analysis; conditions: in vivo, 24 h

SMILES	Drug recovery (Triticum aestivum [1]) [%]	Drug recovery (Triticum aestivum [2]) [%]	Drug uptake (Triticum aestivum [3]) [µg/kg]
C[C@H]1CCCC(=O)CCC/C=C/c2cc(O[C@@H]3O[C@H](CO)[C@@H](O)[C@H](O)[C@H]3O)cc(O)c2C(=O)O1 [Zearalenone-4-beta-D-glucopyranoside]	67	69	17
C[C@H]1CCCC(=O)CCC/C=C/c2cc(O)cc(O)c2C(=O)O1 [ZEARALENONE]	32	89	11
